Laboratory results reported in patent publication US11524966B1 (Valo Early Discovery, Inc., priority 2017, dated 2022).

Biological target: T1, USP25 (USP25-His6, Boston Biochem E-546) (Homo sapiens, UniProt Q9UHP3)
T1 construct: His6; purchased Boston Biochem E-546
T1 sequence (Q9UHP3 1-1055): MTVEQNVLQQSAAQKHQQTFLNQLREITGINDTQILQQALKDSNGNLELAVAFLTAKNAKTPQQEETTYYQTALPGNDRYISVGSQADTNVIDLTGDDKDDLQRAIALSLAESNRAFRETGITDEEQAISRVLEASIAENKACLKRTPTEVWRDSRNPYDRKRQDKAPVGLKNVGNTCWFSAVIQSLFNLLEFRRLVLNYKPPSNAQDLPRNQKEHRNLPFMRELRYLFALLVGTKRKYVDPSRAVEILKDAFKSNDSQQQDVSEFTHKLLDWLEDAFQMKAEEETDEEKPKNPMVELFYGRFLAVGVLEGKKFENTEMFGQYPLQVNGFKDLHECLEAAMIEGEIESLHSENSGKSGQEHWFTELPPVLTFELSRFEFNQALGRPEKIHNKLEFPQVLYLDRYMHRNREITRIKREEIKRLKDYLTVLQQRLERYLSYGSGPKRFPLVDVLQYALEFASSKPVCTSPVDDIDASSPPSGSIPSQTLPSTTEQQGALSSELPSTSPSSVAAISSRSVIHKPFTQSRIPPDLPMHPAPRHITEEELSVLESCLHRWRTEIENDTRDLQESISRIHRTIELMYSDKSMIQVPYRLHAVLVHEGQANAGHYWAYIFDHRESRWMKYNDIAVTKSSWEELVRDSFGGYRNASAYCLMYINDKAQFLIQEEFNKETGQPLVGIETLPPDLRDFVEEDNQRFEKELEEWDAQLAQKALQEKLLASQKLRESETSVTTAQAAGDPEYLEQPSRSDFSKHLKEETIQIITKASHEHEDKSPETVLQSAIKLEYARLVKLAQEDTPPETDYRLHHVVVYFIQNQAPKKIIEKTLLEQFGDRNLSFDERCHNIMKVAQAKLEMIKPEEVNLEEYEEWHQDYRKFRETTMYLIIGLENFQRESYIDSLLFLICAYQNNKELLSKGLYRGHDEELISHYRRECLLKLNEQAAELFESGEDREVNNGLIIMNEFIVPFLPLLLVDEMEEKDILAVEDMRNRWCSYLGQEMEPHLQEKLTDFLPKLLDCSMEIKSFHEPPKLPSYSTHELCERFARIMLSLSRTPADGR
Assay: Ubiquitin-Rhodamine 110 Assay for USP25 Activity, Example A-2
Format: biochemical
Details: Ubiquitin-Rhodamine 110 assay, Example A-2; read-out: USP25 A-2 IC50 range
How it was run: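 Inhibition is quantified as IC50 by 4-parameter fit of fluorescence (485/535 nm) from Ub-Rh110 hydrolysis. Enzyme USP25-His6 at 75 pM with 30 min compound preincubation, then 25 nM substrate for 45 min at room temperature in pH 8.0 Tris buffer containing BME.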

| SMILES | IC50 [nM] |
| --- | --- |
| CO[C@H]1CN(c2ccc3c(c2)OC[C@H](NC(=O)c2sc4nc(C)ccc4c2N)C3)[C@@H](C)[C@@H]1N [Example 333, 3-amino-N-[(3R)-7-[(2S,3S,4S)-3-amino-4-methoxy-2-methylpyrrolidin-1-yl]-3,4-dihydro-2H-1-benzopyran-3-yl]-6-methylthieno[2,3-b]pyridine-2-carboxamide] | 50 to 200 |
| CO[C@H]1[C@H](N)CN(c2ccc3c(c2)OC[C@H](NC(=O)c2sc4nc(C)ccc4c2N)C3)[C@H]1C [Example 334, 3-amino-N-[(3R)-7-[(2S,3S,4R)-4-amino-3-methoxy-2-methylpyrrolidin-1-yl]-3,4-dihydro-2H-1-benzopyran-3-yl]-6-methylthieno[2,3-b]pyridine-2-carboxamide] | 1 to 50 |
| CO[C@@H]1CN(c2ccc3c(c2)OC[C@H](NC(=O)c2sc4nc(C)ccc4c2N)C3)[C@H](C)[C@H]1N [Example 335, 3-amino-N-[(3R)-7-[(2R,3R,4R)-3-amino-4-methoxy-2-methylpyrrolidin-1-yl]-3,4-dihydro-2H-1-benzopyran-3-yl]-6-methylthieno[2,3-b]pyridine-2-carboxamide] | 200 to 2000 |
| CO[C@H]1[C@@H](C)N(c2ccc3c(c2)OC[C@H](NC(=O)c2sc4nc(C)ccc4c2N)C3)C[C@@H]1N [Example 336, 3-amino-N-[(3R)-7-[(2R,3R,4S)-4-amino-3-methoxy-2-methylpyrrolidin-1-yl]-3,4-dihydro-2H-1-benzopyran-3-yl]-6-methylthieno[2,3-b]pyridine-2-carboxamide] | 200 to 2000 |
| Cc1ccc2c(N)c(C(=O)N[C@H]3COc4cc(N5CC6(C5)OCC[C@H]6N)ccc4C3)sc2n1 [Example 337, 3-amino-N-[(3R)-7-[(8R)-8-amino-5-oxa-2-azaspiro[3.4]octan-2-yl]-3,4-dihydro-2H-1-benzopyran-3-yl]-6-methylthieno[2,3-b]pyridine-2-carboxamide] | 200 to 2000 |
| Cc1ccc2c(N)c(C(=O)N[C@H]3COc4cc(N5CC6(C5)OCC[C@@H]6N)ccc4C3)sc2n1 [Example 338, 3-amino-N-[(3R)-7-[(8S)-8-amino-5-oxa-2-azaspiro[3.4]octan-2-yl]-3,4-dihydro-2H-1-benzopyran-3-yl]-6-methylthieno[2,3-b]pyridine-2-carboxamide] | 200 to 2000 |
| Cc1ccc2c(N)c(C(=O)N[C@H]3COc4cc(N5C[C@@H](N)[C@@]6(CCO6)C5)ccc4C3)sc2n1 [Example 339, 3-amino-N-[(3R)-7-[(4R,8R)-8-amino-1-oxa-6-azaspiro[3.4]octan-6-yl]-3,4-dihydro-2H-1-benzopyran-3-yl]-6-methylthieno[2,3-b]pyridine-2-carboxamide] | 200 to 2000 |
| Cc1ccc2c(N)c(C(=O)N[C@H]3COc4cc(N5C[C@H](N)[C@]6(CCO6)C5)ccc4C3)sc2n1 [Example 340, 3-amino-N-[(3R)-7-[(4S,8S)-8-amino-1-oxa-6-azaspiro[3.4]octan-6-yl]-3,4-dihydro-2H-1-benzopyran-3-yl]-6-methylthieno[2,3-b]pyridine-2-carboxamide] | 200 to 2000 |
| COC[C@@]1(C)CN(c2ccc3c(n2)CC[C@H](NC(=O)c2sc4nc(C)ccc4c2N)C3)C[C@@H]1N [Example 341, 3-amino-N-[(6S)-2-[(3S,4R)-4-amino-3-(methoxymethyl)-3-methylpyrrolidin-1-yl]-5,6,7,8-tetrahydroquinolin-6-yl]-6-methylthieno[2,3-b]pyridine-2-carboxamide] | 200 to 2000 |
| COC[C@]1(C)CN(c2ccc3c(n2)CC[C@H](NC(=O)c2sc4nc(C)ccc4c2N)C3)C[C@@H]1N [Example 342, 3-amino-N-[(6S)-2-[(3R,4R)-4-amino-3-(methoxymethyl)-3-methylpyrrolidin-1-yl]-5,6,7,8-tetrahydroquinolin-6-yl]-6-methylthieno[2,3-b]pyridine-2-carboxamide] | 200 to 2000 |
| COC[C@]1(C)CN(c2ccc3c(n2)CC[C@H](NC(=O)c2sc4nc(C)ccc4c2N)C3)C[C@H]1N [Example 344, 3-amino-N-[(6S)-2-[(3R,4S)-4-amino-3-(methoxymethyl)-3-methylpyrrolidin-1-yl]-5,6,7,8-tetrahydroquinolin-6-yl]-6-methylthieno[2,3-b]pyridine-2-carboxamide] | 200 to 2000 |
